Columns and labels:
[1] = molecular target: T1, E. coli Tat machinery (IMVs containing overproduced TatABC) (Escherichia coli, UniProt P69423+P69425+P69428); assay: In vitro Tat transport assay of pre-SufI into IMVs, NADH as energy source; assay type: biochemical; details: hit compound 20 μM; NADH 4 mM; 37°C 30 min
Experimental: (§1) To directly test for inhibition of Tat transport, a gel-based in vitro Tat transport assay was performed using pre-SufI, an authentic Tat precursor protein [7]. In short, this assay consists of incubating a Tat substrate and a Δψ-generating energy source with inverted membrane vesicles (IMVs) containing overproduced TatABC, digesting remaining external protein with a protease, and then analyzing via SDS-PAGE. This assay was run twice using NADH and ATP (if warranted) as energy sources to generate the necessary Δψ. NADH generates a Δψ using respiratory proteins (i.e., the NADH dehydrogenase and cytochrome bo3 ubiquinol oxidase complexes) and ATP generates a Δψ by reversal of ATP synthase. A true Tat inhibitor would survive both assays. In contrast, a respiration inhibitor is expected to reduce Tat transport when only one of the two energy sources is used (except for an ionophore).
Fig 8 Effect of Hits from the Local HTS on In Vitro Tat Transport. (A) Tat transport assays of pre-SufI using NADH to generate a Δψ. Inverted membrane vesicles (IMVs; A280 = 5.0), the fluorescent substrate pre-SufI-IAC^Atto565 (90 nM), and NADH (4 mM) were incubated at 37°C for 30 min with DMSO (control) or with hit compound (20 μM). Samples were treated with the protease proteinase K, run on SDS-PAGE, and analyzed by in-gel fluorescence imaging. Assays were run in duplicate. Band intensity corresponds to the amount of protein transported into the IMV lumen. The following 7 compounds survived this screen: 1^JS, 51^JS, 55^JS, 111^JS, 181^JS, 202^JS, and 140^JS (boxed in red). (B) Tat transport assays of pre-SufI using ATP to generate a Δψ. All 7 compounds surviving the screen in (A) were tested using a Tat transport assay performed identically to those in (A) except that ATP (1 mM) was used in place of NADH. Compound 55^JS was eliminated by this assay—the other 6 compounds survived (boxed in red). (C) Chemical structure of compound 55^JS, N-(4,7-Dioxo-4,7-dihydro-2,1,3-benzoxadiazol-5-yl)acetamide.
Isolation of inverted membrane vesicles (IMVs), Western blot analyses and purification of pre-SufI-IAC were performed as described previously. Western blots were performed using rabbit anti-mCherry antibodies (1:10,000 dilution) in the presence of 0.1% Triton X-100 and 0.1% Tween 20. The pre-SufI-IAC protein was labeled with Atto565 maleimide, and the resultant fluorescent protein, pre-SufI-IAC^Atto565, was used as a substrate for the in vitro Tat transport assays (A280 = 5.0), as described previously. The presence of a Δψ was determined by measuring oxonol VI fluorescence in presence of Tat^+ IMVs (A280 = 0.5), as described previously, except that the translocation buffer lacked BSA. Steady-state fluorescence spectra and fluorescence intensities of whole cells producing mCherry proteins were determined with an SLM-8100 spectrofluorometer.
Supplementary file pone.0149659.s003.tiff: S3 Fig IC50's for Hit Compound 181^JS. (A) The total cellular mCherry fluorescence (live cell assay; n = 1), (B) the in vitro NADH-dependent Tat transport efficiency of pre-SufI (n = 1), and (C) the maximum transmembrane electrical potential gradient (n = 1) were measured for a range of concentrations of compound 181^JS (S2E Fig). (D) SDS-PAGE gel showing in-gel fluorescence data used in (B). For (A), cells expressing spTorA-mCherry-SsrA were grown under Tat^++ conditions in a 384-well plate in the presence of 0, 0.08, 0.15, 0.3, 0.63, 1.25, 2.5, 5, 10, 20, or 40 μM compound 181^JS, as described for the HTS assay (see Methods). For (B) and (C), IMVs were incubated with the same concentrations of compound 181^JS prior to initiation of Tat transport and Δψ generation by the addition of NADH, as described previously. The red curves are best-fits using y = d + (100-d)/(1+(x/IC50)^b), where b is a slope factor and d is the high concentration asymptote. (TIFF) Click here for additional data file.

[2] = molecular target: T1, E. coli Tat machinery (IMVs containing overproduced TatABC); assay: In vitro Tat transport assay of pre-SufI into IMVs, ATP as energy source; assay type: biochemical; details: hit compound 20 μM; ATP 1 mM
Experimental: as §1
Fig 8 Effect of Hits from the Local HTS on In Vitro Tat Transport. (A) Tat transport assays of pre-SufI using NADH to generate a Δψ. […] Samples were treated with the protease proteinase K, run on SDS-PAGE, and analyzed by in-gel fluorescence imaging. Assays were run in duplicate. Band intensity corresponds to the amount of protein transported into the IMV lumen. The following 7 compounds survived this screen: 1^JS, 51^JS, 55^JS, 111^JS, 181^JS, 202^JS, and 140^JS (boxed in red). (B) Tat transport assays of pre-SufI using ATP to generate a Δψ. All 7 compounds surviving the screen in (A) were tested using a Tat transport assay performed identically to those in (A) except that ATP (1 mM) was used in place of NADH. […]
Isolation of inverted membrane vesicles (IMVs), Western blot analyses and purification of pre-SufI-IAC were performed as described previously. […] The presence of a Δψ was determined by measuring oxonol VI fluorescence in presence of Tat^+ IMVs (A280 = 0.5), as described previously, except that the translocation buffer lacked BSA. Steady-state fluorescence spectra and fluorescence intensities of whole cells producing mCherry proteins were determined with an SLM-8100 spectrofluorometer.

T1 sequence (P69423 2-258): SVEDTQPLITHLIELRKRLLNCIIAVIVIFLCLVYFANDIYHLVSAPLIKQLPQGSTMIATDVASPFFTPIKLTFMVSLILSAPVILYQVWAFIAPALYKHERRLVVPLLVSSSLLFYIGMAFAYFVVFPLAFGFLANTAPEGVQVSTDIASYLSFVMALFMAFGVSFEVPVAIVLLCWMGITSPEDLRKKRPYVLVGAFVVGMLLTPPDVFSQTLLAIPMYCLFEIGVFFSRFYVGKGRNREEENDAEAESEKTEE
T1 sequence (P69425 whole entry): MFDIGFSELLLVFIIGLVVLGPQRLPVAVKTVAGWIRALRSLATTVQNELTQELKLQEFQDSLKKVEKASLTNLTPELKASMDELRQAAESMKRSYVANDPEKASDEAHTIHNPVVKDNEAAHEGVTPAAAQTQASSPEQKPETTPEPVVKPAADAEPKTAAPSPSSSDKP
T1 sequence (P69428 whole entry): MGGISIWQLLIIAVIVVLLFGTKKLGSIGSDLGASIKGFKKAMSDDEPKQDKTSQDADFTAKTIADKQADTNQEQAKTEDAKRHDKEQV

Compound: CC(=O)NC1=CC(=O)c2nonc2C1=O [Compound 55^JS, N-(4,7-dioxo-2,1,3-benzoxadiazol-5-yl)acetamide]
- outcome of NADH-dependent in vitro Tat transport screen (survival = visible inhibition of Tat transport) [1]: survived
- outcome of ATP-dependent in vitro Tat transport screen (survival = visible inhibition of Tat transport) [2]: eliminated
